Assay results reported in patent publication US10272117B2, “Methods of using an activator of cereblon for neural cell expansion and the treatment of central nervous system disorders” (Celgene Corporation, priority 2014, dated 2019).

Tested on: zebrafish embryos
Test: Quantitative PCR of gene expression in zebrafish embryos
Assay type: in vivo
Protocol: BRD7-knockdown zebrafish embryos show similar phenotypes as CRBN-overexpressing zebrafish embryos. For example, expression of HuC in untreated, CRBN-overexpressing, and BRD7-knockdown zebrafish embryos was compared by quantitative PCR. Quantitative PCR was performed as follows: 1.7 μg of random […] and oligo-dT primed cDNA synthesized by ReverTra Ace qPCR RT Kit (TOYOBO, Japan) (as template) were used for reverse transcription by THUNDERBIRD™ SYBR® qPCR Mix (Toyobo, Japan). 0.25 mM of each forward and reverse primers were used in the reaction, wherein the sequence of the forward primer was 5′-[…]-3′ (SEQ ID NO: 9); and the sequence of the reverse primer was 5′-[…]-3′ (SEQ ID NO: 10).
Expression of Pou5f1 (Oct3/4), c-Myc, Sox2, and Nanog in zebrafish embryos was analyzed by quantitative PCR. Quantitative RT (qRT)-PCR was performed as follows: 1.7 μg of random hexamer and oligo-dT primed cDNA synthesized by ReverTra Ace qPCR RT Kit (TOYOBO, Japan) (as template) were used for reverse transcription by THUNDERBIRD™ SYBR® qPCR Mix (Toyobo, Japan). 0.25 mM of each forward and reverse primers was used in the reaction. The sequences of primers for c-Myc are as follows: forward primer is 5′-[…]-3′ (SEQ ID NO: 15), and reverse primer is 5′-GTAAAACGACGGCCAGT-3′ (SEQ ID NO: 16). The sequences of primers for sox2 are as follows: forward primer is 5′-ACCCCGGAGGAAAACCAA-3′ (SEQ ID NO: 17), and reverse primer is 5′-CCCGGCAGGGTGTACTTG-3′ (SEQ ID NO: 18). The sequences of primers for nanog are as follows: forward primer is 5′-TACCCAACACACCAGCTTC-3′ (SEQ ID NO: 19), and reverse primer is 5′-GAAGGGTGTTTTTGGAGGA-3′ (SEQ ID NO: 20).
Expression of a pool of three genes, Ascl1, Brn2 (Pou3f2), and Myt1la, is sufficient to directly reprogram embryonic and postnatal fibroblasts into functional neurons. See, e.g., Vierbuchen and Wernig, Nat Biotechnol. 29:892-907 […]. […] Primer sequences for amplification for Ascl1a are as follows: forward primer is 5′-ACGAGCATGACGCCGTA-3′ (SEQ ID NO: 21), and reverse primer is 5′-[…]-3′ (SEQ ID NO: 22). Primer sequences for amplification for Pou3f2b are as follows: forward primer is 5′-[…]-3′ (SEQ ID NO: 23), and reverse primer is 5′-[…]-3′(SEQ ID NO: 24). Primer sequences for amplification for Myt1la are as follows: forward primer is 5′-[…]-3′ (SEQ ID NO: 25), and reverse primer is 5′-[…]-3′ (SEQ ID NO: 26). FIG. […]
Notch3 and Neuropilin2b (Nrp2b) are required for cell proliferation progression. Notch3 regulates the timing of neural differentiation from undifferentiated or immature cells, and Nrp2b regulates cell proliferation and remodeling in mesenchymal stem cells by cooperating with PDGF (platelet-derived growth factor). Therefore, expression of Notch3 and Neuropilin 2b (Nrp2b) was analyzed in untreated and CRBN-overexpressing zebrafish embryos by quantitative PCR. The primers used for Notch3 are as follows: the sequence for forward primer is 5′-[…]-3′ (SEQ ID NO: 27), and the sequence for reverse primer is 5′-[…]-3′ (SEQ ID NO: 28). The primers used for Nrp2b are as follows: the sequence of forward primer is 5′-[…]-3′ (SEQ ID NO: 29), and the sequence of reverse primer is 5′-[…]-3′ (SEQ ID NO: 30). FIG. 29A is a histogram showing the mRNA level of Notch3 and Nrp2b in untreated, CRBN-overexpressing, and thalidomide-treated zebrafish embryos at 11 hpf by quantitative PCR. As shown, expression of Notch3 in the CRBN-overexpressing embryos increased to 1.8-fold of the level in the untreated embryos at 11 hpf, and expression of Nrp2b in the CRBN-overexpressing embryos increased to 2.7-fold of the level in the untreated embryos at the same stage.
Elval3 (Huc) is a neural progenitor marker. Expression of Elavl3 (Huc) was also analyzed by quantitative PCR and in situ hybridization. […]

[1] = 11 hpf, compared to untreated embryos

Substance	expression of Ascl1a (change) (23 hpf)	expression of Pou3f2b (change) (23 hpf)	expression of Ascl1 (change) (28 hpf)	expression of Myt1la (change) (28 hpf)	expression of Nanog (change) (28 hpf)	expression of Pou3f2b (change) (28 hpf)	expression of Pou3f3a (change) (28 hpf)	expression of Sox2 (change) (28 hpf)	expression of c-Myc (change) (28 hpf)	expression of Nanog (change) (11 hpf, FIG. 13)	expression of Pou5f1 (change) (11 hpf, FIG. 13)	expression of Zic3 (change) (11 hpf, FIG. 13)	Nanog expression [1] [fold]	Pou5f1 expression [1] [fold]	Sox2 expression [1] [fold]	Zic3 expression [1] [fold]	expression of Ascl1 (change) (11 hpf)	expression of Brn2 (Pou3f2b) (change) (11 hpf)	expression of Myt1l (change) (11 hpf)	HuC (Elavl3) expression level (11 hpf, fold of level in untreated embryos) [fold]
5′-TTCCTGTGCCTCCTCAGTCTCCATC-3′ (all phosphorodiamidate morpholino (PMO)) [Ikaros-knockdown, 25-mer antisense morpholino oligonucleotide (AMO) used for the Ikaros gene knockdown]	increased	increased	increased	increased	activated	increased	increased	activated	activated	–	–	–	–	–	–	–	–	–	–	–
5′-AGAGCTGTAGCTGGTTCCCCATTTC-3′ (all phosphorodiamidate morpholino (PMO)) [CRBN-knockdown, 25-mer antisense morpholino oligonucleotide (AMO) used for the CRBN gene knockdown, reference compound]	decreased	decreased	–	–	–	–	–	–	–	decreased	decreased	decreased	0.8	0.8	0.7	0.8	–	–	–	–
5′-TGTGTTTCTTGTGCTTTTTGCCCAT-3′ (all phosphorodiamidate morpholino (PMO)) [BRD7-knockdown, 25-mer antisense morpholino oligonucleotide (AMO) used for the BRD7 gene knockdown]	–	–	increased	increased	–	–	increased	–	–	increased	significantly increased	increased	–	–	–	–	increased	increased	increased	1.7
